Assay: xn = mol fraction of the nth substance listed
Settings: 102 kPa, Liquid; for speed of sound: Frequency=3 MHz, Single path-length method; for mass density: Vibrating tube method; for viscosity: Concentric cylinders viscometry

CCCCCCCC1CCCCC1 [heptylcyclohexane] + CCCCCCCCCCCC
Settings | mass density [kg/m3] | speed of sound [m/s] | viscosity [mPa·s]
288.15 K, x1 = 0.1002 | 758.6 | 1324.4 | –
288.15 K, x1 = 0.201 | 764.82 | 1331.8 | –
288.15 K, x1 = 0.3 | 771.01 | 1339.3 | –
288.15 K, x1 = 0.3998 | 777.16 | 1346.8 | –
288.15 K, x1 = 0.5002 | 783.44 | 1354.4 | –
288.15 K, x1 = 0.5999 | 789.63 | 1362 | –
288.15 K, x1 = 0.6998 | 795.81 | 1369.8 | –
288.15 K, x1 = 0.8001 | 802.09 | 1377.6 | –
288.15 K, x1 = 0.8998 | 808.24 | 1385.6 | –
288.15 K, x1 = 1 | 814.51 | 1393.6 | –
293.15 K, x1 = 0.1002 | 754.98 | 1304.9 | 1.57
293.15 K, x1 = 0.201 | 761.22 | 1312.4 | 1.67
293.15 K, x1 = 0.3 | 767.42 | 1319.9 | 1.76
293.15 K, x1 = 0.3998 | 773.59 | 1327.3 | 1.87
293.15 K, x1 = 0.5002 | 779.88 | 1335.1 | 1.99
293.15 K, x1 = 0.5999 | 786.08 | 1342.8 | 2.12
293.15 K, x1 = 0.6998 | 792.27 | 1350.4 | 2.26
293.15 K, x1 = 0.8001 | 798.57 | 1358.3 | 2.42
293.15 K, x1 = 0.8998 | 804.73 | 1366.2 | 2.6
293.15 K, x1 = 1 | 811 | 1374.2 | 2.8
298.15 K, x1 = 0.1002 | 751.36 | 1285.5 | –
298.15 K, x1 = 0.201 | 757.61 | 1293.1 | –
298.15 K, x1 = 0.3 | 763.84 | 1300.8 | –
298.15 K, x1 = 0.3998 | 770.01 | 1308 | –
298.15 K, x1 = 0.5002 | 776.32 | 1316 | –
298.15 K, x1 = 0.5999 | 782.53 | 1323.6 | –
298.15 K, x1 = 0.6998 | 788.73 | 1331.1 | –
298.15 K, x1 = 0.8001 | 795.04 | 1339.3 | –
298.15 K, x1 = 0.8998 | 801.21 | 1346.9 | –
298.15 K, x1 = 1 | 807.49 | 1355.1 | –
303.15 K, x1 = 0.1002 | 747.74 | 1266.3 | 1.33
303.15 K, x1 = 0.201 | 754.01 | 1273.9 | 1.41
303.15 K, x1 = 0.3 | 760.25 | 1281.8 | 1.48
303.15 K, x1 = 0.3998 | 766.42 | 1288.8 | 1.57
303.15 K, x1 = 0.5002 | 772.75 | 1297 | 1.66
303.15 K, x1 = 0.5999 | 778.98 | 1304.7 | 1.74
303.15 K, x1 = 0.6998 | 785.18 | 1312.1 | 1.85
303.15 K, x1 = 0.8001 | 791.51 | 1320.3 | 1.97
303.15 K, x1 = 0.8998 | 797.69 | 1327.9 | 2.11
303.15 K, x1 = 1 | 803.98 | 1336.1 | 2.25
313.15 K, x1 = 0.1002 | 740.48 | 1228.4 | 1.13
313.15 K, x1 = 0.201 | 746.79 | 1236.2 | 1.19
313.15 K, x1 = 0.3 | 753.05 | 1244.2 | 1.25
313.15 K, x1 = 0.3998 | 759.25 | 1251.2 | 1.32
313.15 K, x1 = 0.5002 | 765.6 | 1259.6 | 1.39
313.15 K, x1 = 0.5999 | 771.86 | 1267.3 | 1.47
313.15 K, x1 = 0.6998 | 778.09 | 1274.6 | 1.54
313.15 K, x1 = 0.8001 | 784.43 | 1283 | 1.63
313.15 K, x1 = 0.8998 | 790.64 | 1290.5 | 1.73
313.15 K, x1 = 1 | 796.95 | 1298.8 | 1.85
323.15 K, x1 = 0.1002 | 733.2 | 1191.3 | 0.976
323.15 K, x1 = 0.201 | 739.54 | 1199.2 | 1.02
323.15 K, x1 = 0.3 | 745.82 | 1207.3 | 1.08
323.15 K, x1 = 0.3998 | 752.06 | 1214.3 | 1.13
323.15 K, x1 = 0.5002 | 758.43 | 1222.8 | 1.19
323.15 K, x1 = 0.5999 | 764.71 | 1230.6 | 1.25
323.15 K, x1 = 0.6998 | 770.98 | 1238 | 1.32
323.15 K, x1 = 0.8001 | 777.34 | 1246.3 | 1.38
323.15 K, x1 = 0.8998 | 783.57 | 1253.9 | 1.45
323.15 K, x1 = 1 | 789.91 | 1262.2 | 1.55
333.15 K, x1 = 0.1002 | 725.89 | 1155.3 | 0.851
333.15 K, x1 = 0.201 | 732.26 | 1163.2 | 0.891
333.15 K, x1 = 0.3 | 738.56 | 1171.2 | 0.933
333.15 K, x1 = 0.3998 | 744.84 | 1178.5 | 0.977
333.15 K, x1 = 0.5002 | 751.23 | 1186.8 | 1.03
333.15 K, x1 = 0.5999 | 757.54 | 1194.6 | 1.08
333.15 K, x1 = 0.6998 | 763.84 | 1202.4 | 1.14
333.15 K, x1 = 0.8001 | 770.22 | 1210.5 | 1.18
333.15 K, x1 = 0.8998 | 776.49 | 1218.5 | 1.23
333.15 K, x1 = 1 | 782.85 | 1226.7 | 1.31
